Measurements: patent publication US9765213B2, “Drug carriers comprising amphilphilic block copolymers” (BIOCOMPATIBLES UK LIMITED, priority 2002, dated 2017)
Structures can show the parent of a compound that is named as a salt. Numbered stars: 1 amine (or outer) side, 2 acyl side, 3 side chain; on linkers, the order of the positions; unused ones are H or OH. Bridge positions count the residues as written; N and C are the ends. Square brackets hold non-standard residues; d marks the D form. Peptide text beside a SMILES is read from it. I, II: the chains in the order shown. Actinocin(9to1) = Cc1c2oc3c(C)ccc(C(=O)[*:1])c3nc-2c(C(=O)[*:2])c(N)c1=O; NMeV = CN[C@H](C(=O)O)C(C)C; Sar = CNCC(=O)O

assay: Release of solubilised Orange OT dye from micelles by lowered pH (particle size); assay type: physicochemical; details: pH 4.5, after release from MPC30-DEA60 micelles
From the text: The release of solubilised Orange OT dye from micelles, as a model for drug release, using lowered pH as the stimuli was examined.

share of the particle population	Structure (SMILES)
1%	Cc1ccccc1N=Nc1c(O)ccc2ccccc12 [Orange OT]

same assay, conditions: released from MPC30-DEA60 micelles, pH reduced to pH 4.5

mean particle diameter of released dye aggregates	Structure (SMILES)
113 nm	Cc1ccccc1N=Nc1c(O)ccc2ccccc12 [Orange OT]

assay: not given; details: octanol/water; determined experimentally, literature; cited from earlier work

Structure (SMILES)	LogP (Exp)
CC[C@]1(O)C[C@H]2CN(CCc3c([nH]c4ccccc34)[C@@](C(=O)OC)(c3cc4c(cc3OC)N(C=O)[C@H]3[C@@](O)(C(=O)OC)[C@H](OC(C)=O)[C@]5(CC)C=CCN6CC[C@]43[C@@H]65)C2)C1 [Vincristine Sulfate]	2.14
COc1cc([C@@H]2c3cc4c(cc3[C@@H](O[C@@H]3O[C@@H]5CO[C@@H](C)O[C@H]5[C@H](O)[C@H]3O)[C@H]3COC(=O)[C@H]23)OCO4)cc(OC)c1O [Etoposide]	0.99
C[C@]12CC[C@@H]3c4ccc(O)cc4CC[C@H]3[C@@H]1CC[C@@H]2O [Estradiol]	4.3
O=c1[nH]cc(F)c(=O)[nH]1 [Fluorouracil]	−1
COCc1c(C(C)C)nc(C(C)C)c(/C=C/[C@@H](O)C[C@@H](O)CC(=O)O)c1-c1ccc(F)cc1 [Cerivastatin]	2.05
CC[C@H](C)C(=O)O[C@H]1C[C@H](O)C=C2C=C[C@H](C)[C@H](CC[C@@H](O)C[C@@H](O)CC(=O)O)[C@H]21 [Pravastatin]	−0.23
Cc1c2oc3c(C)ccc(C(=O)N[C@@H]4C(=O)N[C@H](C(C)C)C(=O)N5CCC[C@H]5C(=O)N(C)CC(=O)N(C)[C@@H](C(C)C)C(=O)O[C@@H]4C)c3nc-2c(C(=O)N[C@@H]2C(=O)N[C@H](C(C)C)C(=O)N3CCC[C@H]3C(=O)N(C)CC(=O)N(C)[C@@H](C(C)C)C(=O)O[C@@H]2C)c(N)c1=O [Actinomycin] (I: T[dV]P[Sar][NMeV] / II: T[dV]P[Sar][NMeV]; ester I:1-I:C, II:1-II:C; linker I:N-II:N via Actinocin(9to1))	0.997
CC(C)n1c(/C=C/C(O)CC(O)CC(=O)O)c(-c2ccc(F)cc2)c2ccccc21 (centres unmarked) [Fluvastatin]	1.67
CC[C@]1(O)C[C@@H]2CN(CCc3c([nH]c4ccccc34)[C@@](C(=O)OC)(c3cc4c(cc3OC)N(C)[C@H]3[C@@](O)(C(=O)OC)[C@H](OC(C)=O)[C@]5(CC)C=CCN6CC[C@]43[C@@H]65)C2)C1 [Vinblastine]	1.68
CC(=O)O[C@H]1C(=O)[C@@]2(C)[C@H]([C@H](OC(=O)c3ccccc3)[C@]3(O)C[C@H](OC(=O)[C@H](O)[C@@H](NC(=O)c4ccccc4)c4ccccc4)C(C)=C1C3(C)C)[C@]1(OC(C)=O)CO[C@@H]1C[C@@H]2O [Taxol]	3.98
O=C1CCc2cc(OCCCCc3nnnn3C3CCCCC3)ccc2N1 [Cilostazol]	2.3
Nc1nc2nc[nH]c2c(=S)[nH]1 [6-Thioguanine]	−0.28
CC[C@H](C)C(=O)O[C@H]1C[C@@H](C)C=C2C=C[C@H](C)[C@H](CC[C@@H]3C[C@@H](O)CC(=O)O3)[C@H]21 [Lovastatin]	1.7

assay: Dipyridamole loading by pH change; assay type: physicochemical; details: pH 2
Procedure: In another example of drug loading, a solution of the drug dipyridamole was used given the intensely coloured nature of the drug allows simple detection. At pH 2 this drug was dissolved to give a fluorescent green-yellow solution. By adjusting the pH to 9-10 the drug was seen to precipitate.

solubility behaviour of the drug	Structure (SMILES)
dissolved	OCCN(CCO)c1nc(N2CCCCC2)c2nc(N(CCO)CCO)nc(N3CCCCC3)c2n1 [Dipyramidole]

same assay, conditions: pH 9-10

solubility behaviour of the drug	Structure (SMILES)
precipitate	OCCN(CCO)c1nc(N2CCCCC2)c2nc(N(CCO)CCO)nc(N3CCCCC3)c2n1 [Dipyramidole]
